Measured values: publication PMC11325555, “Interaction of Bisphenol A and Its Analogs with Estrogen and Androgen Receptor from Atlantic Cod (Gadus morhua)” (Environmental Science & Technology, 2024)

Assays:
[1] = test system: Er-mediated synthesis of Vtg in Atlantic cod PCLS; experiment: Vitellogenin ELISA in media of exposed precision-cut liver slices (PCLS); type: cell-based, Atlantic cod (Gadus morhua); conditions: 96 h; for Vtg synthesis in PCLS, result in words: 1, 10, 100 μM bisphenols or 0.1, 1, 10 nM EE2, Vtg in media by ELISA
Procedure: PCLS culturing and exposure assays were performed essentially as described previously,[42],[56] with the modifications described below. Juvenile Atlantic cod were killed by a blow to the head, and the liver was dissected out and placed in a Petri dish containing ice-cold PCLS buffer (122 mM NaCl, 4.8 mM KCl, 1.2 mM MgSO4, 11 mM Na2HPO4, 3.7 mM NaHCO3, […]). The liver was then cut into small tissue blocks (approximately 3 cm long, 2 cm wide, and 1–3 cm high) and kept in ice-cold complete culture medium (L-15 medium supplemented with 10% FBS and 1× antibiotic-antimycotic solution). For slicing, the tissue block was fixed on the specimen plate of a Leica vibrating blade microtome VT1200 (Leica, Wetzlar, Germany) using Loctite Super Glue (Clas Ohlson, Bergen, Norway), and 250 μm thick tissue slices were cut (under ice-cold PCLS buffer) and kept in a Petri dish with ice-cold complete culture medium. Using a sterile razor blade, the tissue slices (2 × 3 cm) were then divided into smaller pieces (approximately 4 × 4 mm) and distributed into a 12-well cell culture plate (Sarstedt, Nümbrecht, Germany), each well containing 6 slices and 2 mL of complete culture medium. The PCLS were preincubated at 10 °C for 2 h before exposure. After preincubation, 1 mL of the medium was removed from each well and replaced by 1 mL of fresh complete culture medium containing 2x the final desired concentration and incubated at 10 °C for 96 h with shaking at 50 rpm. […] At the end of the exposure, slices were collected with tweezers and rinsed briefly in cold PBS. Excess PBS was removed by carefully touching a dry surface of the culture plate with the slice 4 times before measuring the weight in a preweighed cryotube. The slices were then snap-frozen in liquid N2 and stored at −80 °C. The media was also sampled and stored at −80 °C for viability (LDH) assay and vitellogenin ELISA.
Vitellogenin (Vtg) in media collected from exposed PCLS was quantified using the Atlantic Cod Vitellogenin ELISA kit (Biosense Laboratories AS, Bergen, Norway) according to manufacturer’s instructions. Vtg was quantified in 100 μL of undiluted media and normalized to the weight of the liver tissue. Statistical analysis of ELISA data was performed with GraphPad Prism Software version 9 (GraphPad Prism, La Jolla, CA, USA) by using one-way ANOVA followed by Dunnett’s test (for normally distributed data) or Friedman test followed by Dunn’s test (for non-normally distributed data), as described previously for PCLS experiments (Yadetie et al.[42]).
Figure 5 Relative vitellogenin production in Atlantic cod precision-cut liver slices (PCLS) exposed to bisphenols and EE2. PCLS were exposed to 1, 10, and 100 μM bisphenols or 0.1, 1, and 10 nM EE2, for 96 h. EE2 was included as positive control for activation of the gmEra signaling pathway. Levels of induced Vtg in the PCLS media were measured using ELISA (Cod Vitellogenin ELISA kit, Biosense Laboratories AS). The data represents mean ± SEM of fold change (compared to solvent control) of Vtg levels from 4 to 10 fish. n = 8–10 for all bisphenols except for BADGE (n = 4). Asterisks denote significant changes (p < 0.05) compared to solvent control.

[2] = biological target: T1, Atlantic cod androgen receptor alpha (gmAra) LBD (Gadus morhua, UniProt D5FIC7); experiment: Luciferase reporter gene assay, gmAra agonism (androgenic activity) in transfected COS-7 cells; conditions: COS-7, monkey, 24 h, read-out: gmAra Emax
T1 sequence (D5FIC7 409-718): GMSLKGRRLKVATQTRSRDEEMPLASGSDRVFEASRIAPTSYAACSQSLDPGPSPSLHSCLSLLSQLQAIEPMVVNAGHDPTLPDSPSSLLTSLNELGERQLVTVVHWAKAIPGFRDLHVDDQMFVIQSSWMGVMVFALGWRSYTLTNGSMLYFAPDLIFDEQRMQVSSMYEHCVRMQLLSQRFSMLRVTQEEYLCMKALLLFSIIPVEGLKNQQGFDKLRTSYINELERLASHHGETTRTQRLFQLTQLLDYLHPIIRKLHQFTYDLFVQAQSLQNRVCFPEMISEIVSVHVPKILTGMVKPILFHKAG
Procedure: Ligand activation of gmEra and gmAra was studied with a luciferase reporter gene assay in COS-7 cells transiently transfected with the pCMX-GAL4(DBD)-gmEra(LBD) or pCMX-GAL4(DBD)-gmAra(LBD) plasmid by using the TransIT-LT1 reagent (TransIT-LT1 Transfection Reagent, Mirus). Cells were seeded into 96-well plates (5000 cells/well) and incubated for 24 h before cotransfection with the plasmid mixture (100 ng/well). The plasmid mixture contained GAL4-UAS luciferase reporter plasmid (tk-(MH100)x4 luc), the pCMX-GAL4(DBD)-gmEra(LBD) or pCMX-GAL4(DBD)-gmAra(LBD) receptor plasmids (2:1 reporter:receptor plasmid mass ratio), and a plasmid constitutively producing the β-galactosidase enzyme used for normalization of transfection efficiency (pCMV- β-Gal). […] The maximum DMSO/methanol concentrations in the exposure wells were 0.5% (v/v) in DMEM medium without phenol red (Sigma-Aldrich). After exposure, cells were lysed, and luciferase and beta-galactosidase activities were measured as luminescence and absorbance (420 nm) after the addition of luciferin and ONPG substrates, respectively, using an Enspire Multimode plate reader (PerkinElmer, Waltham, Massachusetts, USA).
Figure 3 Androgenic activity of bisphenols. COS-7 cells were transiently transfected with gmAra LBD and exposed individually to 12 bisphenol analogs at increasing concentrations. […] The dose–response curves were created using nonlinear regression and the four-parameter logistic fit in Graphpad Prism v.9. For comparison, the dose–response curve of BPA (black line) is indicated together with each individual BP tested (red line). *p < 0.05 versus solvent control by one-way ANOVA and Dunnett’s multiple comparison post hoc test.

SMILES: CC(C)(c1ccc(OCC2CO2)cc1)c1ccc(OCC2CO2)cc1 (centres unmarked) [BADGE]
- Vtg synthesis in PCLS, result in words [1]: small, but significant, decrease in the Vtg synthesis
- maximal fold induction [2]: 1

SMILES: Oc1ccc(C2(c3ccc(O)cc3)c3ccccc3-c3ccccc32)cc1 [BPFL]
- Vtg synthesis in PCLS, result in words [1]: only moderate and not statistically significant
- concentration at which maximum Vtg levels were observed ([1]; 1, 10, 100 μM tested): 10 µM
- maximal fold induction [2]: 1.3
